This is an account of results in PMC7932537, “Quantitative profiling of protease specificity” (PLoS Computational Biology, 2021).

Test [1] has as its system MMP-9. The test is described as follows: Substrate phage display with NGS: relative probability (RP) of P3-P1' tetramer clusters.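 Further: ratio of tetramer probability after protease selection to that in naive phage library.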 Conditions: MMP9; RP of the substrate's P3-P1' tetramer, substrate phage display with NGS. In kind it is biochemical, human.
Another test deals with T1, MMP-2 (Homo sapiens, UniProt P08253).
T1 sequence (P08253 110-660): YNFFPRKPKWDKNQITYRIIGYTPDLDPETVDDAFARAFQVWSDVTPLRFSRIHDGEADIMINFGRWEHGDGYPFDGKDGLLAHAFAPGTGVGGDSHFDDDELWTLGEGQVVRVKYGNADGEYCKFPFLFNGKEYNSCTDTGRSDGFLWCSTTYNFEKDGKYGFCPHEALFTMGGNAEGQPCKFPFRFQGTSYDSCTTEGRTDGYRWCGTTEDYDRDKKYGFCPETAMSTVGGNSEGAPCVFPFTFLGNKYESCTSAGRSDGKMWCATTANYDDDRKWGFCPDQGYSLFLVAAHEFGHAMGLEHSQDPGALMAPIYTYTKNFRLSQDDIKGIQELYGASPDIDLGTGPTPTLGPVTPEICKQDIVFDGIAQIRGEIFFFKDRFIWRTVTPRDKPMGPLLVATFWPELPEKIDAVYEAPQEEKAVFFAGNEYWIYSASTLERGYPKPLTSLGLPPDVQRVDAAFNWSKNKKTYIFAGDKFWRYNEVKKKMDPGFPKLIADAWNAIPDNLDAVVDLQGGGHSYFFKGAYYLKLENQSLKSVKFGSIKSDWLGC
Nature of the test: K(obs) of individual phage substrates (set of 1369). In kind it is biochemical. Conditions: MMP2; individual phage substrate from the set of 1369 peptides; hyphen in the sequence marks the cleavage position.

Test [2] deals with MMP-9 (Homo sapiens, UniProt P14780). The test is described as above. In kind it is biochemical. Conditions: MMP9; individual phage substrate of the set of 1369 peptides; dash in sequence marks cleavage position.
Sequence of MMP-9 (Homo sapiens, UniProt P14780) (P14780 94-707): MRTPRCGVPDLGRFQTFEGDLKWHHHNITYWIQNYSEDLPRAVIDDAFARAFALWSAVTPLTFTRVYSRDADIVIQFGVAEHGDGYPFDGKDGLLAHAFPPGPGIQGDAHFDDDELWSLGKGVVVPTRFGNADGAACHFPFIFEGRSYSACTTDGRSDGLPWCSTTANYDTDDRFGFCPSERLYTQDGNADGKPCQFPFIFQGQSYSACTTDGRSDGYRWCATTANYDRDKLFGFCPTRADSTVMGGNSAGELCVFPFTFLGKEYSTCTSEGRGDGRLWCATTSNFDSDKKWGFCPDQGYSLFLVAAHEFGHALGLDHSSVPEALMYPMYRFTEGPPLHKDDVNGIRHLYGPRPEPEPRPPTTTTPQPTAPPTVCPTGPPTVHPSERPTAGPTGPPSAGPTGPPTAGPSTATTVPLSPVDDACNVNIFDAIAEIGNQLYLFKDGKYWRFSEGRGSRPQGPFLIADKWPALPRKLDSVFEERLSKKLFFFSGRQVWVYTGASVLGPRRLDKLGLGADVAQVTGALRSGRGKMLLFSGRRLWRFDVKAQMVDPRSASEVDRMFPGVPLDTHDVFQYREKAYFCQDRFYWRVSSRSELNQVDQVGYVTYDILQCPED

On to PTWRG-LTASG, for which the “relative probability (RP)” value in the test on MMP-9 [1] is 37.3667. Besides, the results for the “Kobs” value at MMP-2 and on MMP-9 [2] were 5269.78 M⁻¹ s⁻¹ and 12792.1 M⁻¹ s⁻¹, respectively.

For QMPLQ-ITASG, in the test with MMP-9 [1], the “relative probability (RP)” value is on record as 44.6329. Also, the “Kobs” value at MMP-2 is 8941.32 M⁻¹ s⁻¹; on MMP-9 [2] it was 6131.32 M⁻¹ s⁻¹.

As for QPPHA-FTASG, in the test with MMP-9 [1], the “relative probability (RP)” value is 39.4048. Further, the “Kobs” value on MMP-2 and at MMP-9 [2] was 12792.1 M⁻¹ s⁻¹ each time.

As to QRPMD-LTASG, the “relative probability (RP)” value with MMP-9 [1] is on record as 44.1549. Moreover, the “Kobs” value on MMP-2 and at MMP-9 [2] was 12792.1 M⁻¹ s⁻¹ throughout.

For QRVAA-VTASG, in the test with MMP-9 [1], the “relative probability (RP)” value was 0.4709. Besides, the “Kobs” value amounted to 4082.43 M⁻¹ s⁻¹ on MMP-2 and 0 M⁻¹ s⁻¹ on MMP-9 [2].

As for QRVRG-VTASG, the “relative probability (RP)” value in the test on MMP-9 [1] was determined as 13.8249. Moreover, the entries for the “Kobs” value at MMP-2 and on MMP-9 [2] were 1327.88 M⁻¹ s⁻¹ and 619.843 M⁻¹ s⁻¹, respectively.

In the case of QRWFA-LTASG, in the test on MMP-9 [1], the “relative probability (RP)” value is on record as 14.7831. Moreover, the figures for the “Kobs” value on MMP-2 and on MMP-9 [2] were 2038.8 M⁻¹ s⁻¹ and 6688.74 M⁻¹ s⁻¹, respectively.

In the case of QVPRR-LTASG, in the test with MMP-9 [1], the “relative probability (RP)” value was 2.666. Also, the “Kobs” value at MMP-2 was determined as 12792.1 M⁻¹ s⁻¹; at MMP-9 [2], 10866.7 M⁻¹ s⁻¹.

Turning to RAPLP-VTASG, the “relative probability (RP)” value in the test with MMP-9 [1] was 40.8342. In addition, the “Kobs” value on MMP-2 and on MMP-9 [2] was 12792.1 M⁻¹ s⁻¹ throughout.

Consider RAPVA-FTASG, for which the “relative probability (RP)” value in the test with MMP-9 [1] was 39.0112. The “Kobs” value on MMP-2 and on MMP-9 [2] was 12792.1 M⁻¹ s⁻¹ throughout.

In the case of RDLGF-LTASG, the “relative probability (RP)” value in the test on MMP-9 [1] was found to be 3.437. In addition, the “Kobs” value came out at 12792.1 M⁻¹ s⁻¹ on MMP-2 and 0 M⁻¹ s⁻¹ on MMP-9 [2].

Turning to RDMSY-LTASG, the “relative probability (RP)” value with MMP-9 [1] is 0.7522. Also, the “Kobs” value at MMP-2 worked out at 4335.13 M⁻¹ s⁻¹; on MMP-9 [2] it was 0 M⁻¹ s⁻¹.

For the substance RFPLK-VTASG, the “relative probability (RP)” value in the test on MMP-9 [1] is reported as 22.8859. Moreover, the “Kobs” value worked out at 0 M⁻¹ s⁻¹ on MMP-2 and 3438.54 M⁻¹ s⁻¹ at MMP-9 [2].

For the substance RGPSS-YTASG, in the test with MMP-9 [1], the “relative probability (RP)” value was determined as 41.6306. The “Kobs” value at MMP-2 and at MMP-9 [2] was 12792.1 M⁻¹ s⁻¹ throughout.

Take RHPSH-FTASG: the “relative probability (RP)” value in the test on MMP-9 [1] came to 26.7767. The figures for the “Kobs” value at MMP-2 and at MMP-9 [2] were 12792.1 M⁻¹ s⁻¹ and 6688.74 M⁻¹ s⁻¹, respectively.

Regarding RKLAF-LTASG, the “relative probability (RP)” value in the test on MMP-9 [1] stood at 0.6348. The “Kobs” value at MMP-2 came out at 12792.1 M⁻¹ s⁻¹; on MMP-9 [2], 726.013 M⁻¹ s⁻¹.

As for RLPIN-LTASG, in the test on MMP-9 [1], the “relative probability (RP)” value is recorded as 44.8884. The “Kobs” value at MMP-2 and at MMP-9 [2] was 12792.1 M⁻¹ s⁻¹ in each case.

RLPKL-LTASG: the “relative probability (RP)” value with MMP-9 [1] was found to be 35.7561. The “Kobs” value at MMP-2 turned out to be 1816.46 M⁻¹ s⁻¹; at MMP-9 [2], 6688.74 M⁻¹ s⁻¹.

For RLPYP-LTASG, in the test with MMP-9 [1], the “relative probability (RP)” value was 48.6636. The “Kobs” value on MMP-2 and at MMP-9 [2] was 12792.1 M⁻¹ s⁻¹ in each case.

Take RLVNW-MTASG: the “relative probability (RP)” value in the test on MMP-9 [1] was determined as 19.0749. The “Kobs” value at MMP-2 stood at 3850.82 M⁻¹ s⁻¹; at MMP-9 [2] it was 2687.73 M⁻¹ s⁻¹.

RMPRQ-VTASG: the “relative probability (RP)” value with MMP-9 [1] was 25.107. For the same substance, the “Kobs” value on MMP-2 was 1196.62 M⁻¹ s⁻¹; at MMP-9 [2], 1981.53 M⁻¹ s⁻¹.

As for RMWRA-FTASG, the “relative probability (RP)” value with MMP-9 [1] is 17.7749. Further, the “Kobs” value on MMP-2 came to 4205.91 M⁻¹ s⁻¹; on MMP-9 [2] it was 4922.1 M⁻¹ s⁻¹.

Regarding RQPFL-LTASG, the “relative probability (RP)” value in the test with MMP-9 [1] is 33.1122. The “Kobs” value on MMP-2 was determined as 1154.21 M⁻¹ s⁻¹; on MMP-9 [2], 12792.1 M⁻¹ s⁻¹.

As to RQPRN-VTASG, the “relative probability (RP)” value in the test with MMP-9 [1] is on record as 40.3866. Further, the figures for the “Kobs” value on MMP-2 and on MMP-9 [2] were 6131.32 M⁻¹ s⁻¹ and 12792.1 M⁻¹ s⁻¹, respectively.
